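Protocol summary: plate cells (96-well), add compound at 5 concentrations, incubate 48 h, interpolate endpoints linearly. GI50 is the concentration that inhibits growth by half.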 The source made the active and inactive calls. No stated cut-off is given here; in the data, active = GI50 up to about 1.1 µM and inactive = higher.
Columns and labels:
Experiment in all cases: NCI tumour cell line growth inhibition, 48 h
[1] = system: ACHN
[2] = system: BT-549
[3] = system: COLO 205
[4] = system: HL-60
[5] = system: HOP-62
[6] = system: HT-29
[7] = system: K562
[8] = system: MDA-MB-231
[9] = system: MDA-MB-435
[10] = system: MOLT-4
[11] = system: NCI-H522
[12] = system: NCI/ADR-RES
[13] = system: OVCAR-8
[14] = system: RXF 393
[15] = system: SF-295
[16] = system: SF-539
[17] = system: SK-OV-3
[18] = system: SR
[19] = system: TK-10
[20] = system: UACC-257

| SMILES | GI50 [1] | GI50 [2] | GI50 [3] | GI50 [4] | GI50 [5] | GI50 [6] | GI50 [7] | GI50 [8] | GI50 [9] | GI50 [10] | GI50 [11] | GI50 [12] | GI50 [13] | GI50 [14] | GI50 [15] | GI50 [16] | GI50 [17] | GI50 [18] | GI50 [19] | GI50 [20] |
| --- | --- | --- | --- | --- | --- | --- | --- | --- | --- | --- | --- | --- | --- | --- | --- | --- | --- | --- | --- | --- |
| CCOC1NC(=O)c2ccccc21 (centres undefined) | > 100 µM (inactive) | > 100 µM (inactive) | > 100 µM (inactive) | > 100 µM (inactive) | > 100 µM (inactive) | > 100 µM (inactive) | > 100 µM (inactive) | > 100 µM (inactive) | > 100 µM (inactive) | > 100 µM (inactive) | > 100 µM (inactive) | > 100 µM (inactive) | > 100 µM (inactive) | > 100 µM (inactive) | > 100 µM (inactive) | > 100 µM (inactive) | > 100 µM (inactive) | > 100 µM (inactive) | > 100 µM (inactive) | > 100 µM (inactive) |
| O=C1Nc2ccc(Br)cc2/C1=N/c1ccc2c(c1)OCO2 | 23.7 µM (inactive) | 19.8 µM (inactive) | 16.9 µM (inactive) | 13.2 µM (inactive) | 20.2 µM (inactive) | 17.4 µM (inactive) | 24.4 µM (inactive) | 19 µM (inactive) | 9.35 µM (inactive) | 16.6 µM (inactive) | 19.1 µM (inactive) | 27.5 µM (inactive) | 32.5 µM (inactive) | 20.3 µM (inactive) | 24.8 µM (inactive) | 18.5 µM (inactive) | 31.8 µM (inactive) | 15.1 µM (inactive) | 27.3 µM (inactive) | 18.3 µM (inactive) |
| CCCCCC/C=C\CCCCCCCCCC1=C(CN2CCN(C)CC2)C(=O)C=C(OC)C1=O | 3.28 µM (inactive) | 3.87 µM (inactive) | 1.71 µM (inactive) | 0.881 µM (active) | 15.6 µM (inactive) | 7.28 µM (inactive) | 2.24 µM (inactive) | 9.53 µM (inactive) | 8.65 µM (inactive) | 0.353 µM (active) | 1.55 µM (inactive) | 3.58 µM (inactive) | 4.53 µM (inactive) | 2.29 µM (inactive) | 6.3 µM (inactive) | 15.4 µM (inactive) | 13.2 µM (inactive) | 0.0578 µM (active) | 2.92 µM (inactive) | 13.3 µM (inactive) |
| C=CC[C@@]1(C)CCCCCCCCC[C@@](C)(CC=C)C1=O | 34.6 µM (inactive) | 27.4 µM (inactive) | 19.6 µM (inactive) | 20.7 µM (inactive) | 38.4 µM (inactive) | 18.7 µM (inactive) | 28.7 µM (inactive) | 28.8 µM (inactive) | 46.9 µM (inactive) | 20.4 µM (inactive) | 35.2 µM (inactive) | 32.7 µM (inactive) | 21.5 µM (inactive) | 16.9 µM (inactive) | 21.1 µM (inactive) | 41.1 µM (inactive) | 41.1 µM (inactive) | 27.5 µM (inactive) | 99.1 µM (inactive) | 25.2 µM (inactive) |
| CC(C)Cn1cnc2c(Cl)nc3ccccc3c21 | 30.2 µM (inactive) | 51.5 µM (inactive) | 33.7 µM (inactive) | 26.7 µM (inactive) | > 100 µM (inactive) | 46 µM (inactive) | 38.4 µM (inactive) | 41.5 µM (inactive) | 53.2 µM (inactive) | 34.3 µM (inactive) | 50.9 µM (inactive) | 61.2 µM (inactive) | 58.9 µM (inactive) | 51.8 µM (inactive) | 72.6 µM (inactive) | 46.3 µM (inactive) | > 100 µM (inactive) | 25.6 µM (inactive) | 53.6 µM (inactive) | > 100 µM (inactive) |
| C/C(=C\COP(=O)(O)OP(=O)(O)O)CC/C=C(\C)CNc1ccccc1 | > 50 µM (inactive) | 9.16 µM (inactive) | > 50 µM (inactive) | 1.05 µM (active) | > 50 µM (inactive) | > 50 µM (inactive) | > 50 µM (inactive) | > 50 µM (inactive) | > 50 µM (inactive) | 20.1 µM (inactive) | > 50 µM (inactive) | > 50 µM (inactive) | > 50 µM (inactive) | > 50 µM (inactive) | > 50 µM (inactive) | > 50 µM (inactive) | > 50 µM (inactive) | 0.0893 µM (active) | 39.4 µM (inactive) | 43 µM (inactive) |
| COC(=O)/C=C1/OC(c2ccccc2)=C(C)C1=O | 13 µM (inactive) | 2.86 µM (inactive) | 17.5 µM (inactive) | 1.97 µM (inactive) | 16 µM (inactive) | 1.98 µM (inactive) | 3.2 µM (inactive) | 4.86 µM (inactive) | 13.9 µM (inactive) | 3.28 µM (inactive) | 12.6 µM (inactive) | 20.9 µM (inactive) | 6.08 µM (inactive) | 10.6 µM (inactive) | 13.3 µM (inactive) | 17.4 µM (inactive) | 10.7 µM (inactive) | 2.61 µM (inactive) | 15.7 µM (inactive) | – |

From ChEMBL document CHEMBL1201862, “PubChem BioAssay data set” (2004)
